The results in this text go back to BindingDB's records for patent US12291519 (Idorsia Pharmaceuticals, 2025).

pIC50: −log10 of the molar value.

One assay deals with Galectin-1 (Homo sapiens, UniProt P09382). As to the kind of experiment: Biological Assay. How it is done:
(§1) The inhibitory activity of compounds is determined in competitive binding assays. […] Finally, 25 μL/well of ABTS substrate is added.

The target of the next assay is Galectin-3 (Homo sapiens, UniProt P17931). As to the kind of experiment: Biological Assay. How it is done: as §1

By pIC50 is commonly meant −log10 of the IC50, conventionally taken in molar units. A higher pIC50 goes with a small IC50.

Sequence of Galectin-1 (P09382 whole entry): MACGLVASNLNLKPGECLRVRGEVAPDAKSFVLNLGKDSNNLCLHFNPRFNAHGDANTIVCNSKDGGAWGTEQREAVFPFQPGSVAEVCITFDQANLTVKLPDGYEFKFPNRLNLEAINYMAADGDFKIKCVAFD
Sequence of Galectin-3 (P17931 whole entry): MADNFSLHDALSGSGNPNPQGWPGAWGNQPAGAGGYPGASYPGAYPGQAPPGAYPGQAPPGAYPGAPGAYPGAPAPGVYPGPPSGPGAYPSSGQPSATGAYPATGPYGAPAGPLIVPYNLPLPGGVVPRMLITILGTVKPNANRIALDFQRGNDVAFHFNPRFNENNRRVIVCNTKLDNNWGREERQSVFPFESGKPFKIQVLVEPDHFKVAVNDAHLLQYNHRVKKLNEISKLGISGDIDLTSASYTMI

For the compound `COc1cc(-c2cn([C@H]3[C@@H](O)[C@@H](CO)O[C@@H](C(=O)N(c4cc(Cl)cc(Cl)c4)[C@H]4CCCC[C@@H]4O)[C@@H]3OC)nn2)cc(F)c1F` [US12291519, Example 183], the pIC50 is 6.29 against Galectin-1 and 8.05 on Galectin-3.
For the compound `CO[C@@H]1[C@@H](n2cc(-c3ccc(C(F)(F)F)c(F)c3)nn2)[C@@H](O)[C@@H](CO)O[C@H]1C(=O)N(c1cc(Cl)cc(Cl)c1)[C@H]1CCCC[C@@H]1O` [US12291519, Example 180], the values for the pIC50 against Galectin-1 and at Galectin-3 were 5.92 and 7.96, respectively.
`CO[C@@H]1[C@@H](n2cc(-c3cc(F)c(F)c(F)c3)nn2)[C@@H](O)[C@@H](CO)O[C@H]1C(=O)N(c1cc(Br)cc(C#N)c1)[C@H]1CCCC[C@@H]1O` [US12291519, Example 112]: the negative logarithm of the IC50 (pIC50) is 6.82 against Galectin-1 and 8.10 at Galectin-3.
For `CO[C@@H]1[C@@H](n2cc(-c3cccc(F)c3)nn2)[C@@H](O)[C@@H](CO)O[C@H]1C(=O)N(c1cc(Br)cc(C#N)c1)[C@H]1CCCC[C@@H]1O` [US12291519, Example 77], in that order: 6.85 and 7.43.
As for `CO[C@@H]1[C@@H](n2cc(-c3cc(F)cc(Cl)c3)nn2)[C@@H](O)[C@@H](CO)O[C@H]1C(=O)N(c1cc(Cl)cc(C#N)c1)[C@H]1CCCC[C@@H]1O` [US12291519, Example 133], the negative logarithm of the IC50 (pIC50) against Galectin-1 is 6.74; at Galectin-3, 7.66.
`Cc1nc(CN(C(=O)[C@@H]2O[C@H](CO)[C@H](O)[C@H](n3cc(-c4cc(F)c(F)c(F)c4)nn3)[C@H]2O)[C@H]2CCCC[C@@H]2O)c[nH]1` [US12291519, Example 14]: the values for the negative logarithm of the IC50 (pIC50) on Galectin-1 and at Galectin-3 were 4.39 and 6.25, respectively.
Turning to `Cn1cnc(CN(C(=O)[C@@H]2O[C@H](CO)[C@H](O)[C@H](n3cc(-c4cc(F)c(F)c(F)c4)nn3)[C@H]2O)[C@H]2CCCC[C@@H]2O)c1` [US12291519, Example 19], the values for the pIC50 against Galectin-1 and against Galectin-3 were 4.42 and 6.39, respectively.
The like results for `CO[C@@H]1[C@@H](n2cc(-c3cc(F)c(Cl)c(Cl)c3)nn2)[C@@H](O)[C@@H](CO)O[C@H]1C(=O)N(c1cc(Cl)cc(C#N)c1)[C@H]1CCCC[C@@H]1O` [US12291519, Example 169] were, in that order, 6.48 and 7.85.
For the compound `CO[C@@H]1[C@@H](n2cc(-c3cc(F)c(F)c(F)c3)nn2)[C@@H](O)[C@@H](CO)O[C@H]1C(=O)N(c1ccc(Cl)c(Cl)c1)[C@H]1CCCC[C@@H]1O` [US12291519, Example 98], the pIC50 on Galectin-1 was 6.77; against Galectin-3 it was 7.48.
Regarding `CO[C@@H]1[C@@H](n2cc(-c3cc(F)c(Cl)cc3F)nn2)[C@@H](O)[C@@H](CO)O[C@H]1C(=O)N(c1cc(Cl)cc(C#N)c1)[C@H]1CCCC[C@@H]1O` [US12291519, Example 182], the pIC50 was 6.57 against Galectin-1 and 7.46 at Galectin-3.
With `CO[C@@H]1[C@@H](n2cc(-c3cc(F)c(Cl)c(F)c3)nn2)[C@@H](O)[C@@H](CO)O[C@H]1C(=O)N(c1cc(Cl)cc(C#N)c1)[C@H]1CCCC[C@@H]1O` [US12291519, Example 157], the values for the pIC50 at Galectin-1 and at Galectin-3 were 6.15 and 7.72, respectively.
`COc1cc(-c2cn([C@H]3[C@@H](O)[C@@H](CO)O[C@@H](C(=O)N(c4cc(Cl)cc(C#N)c4)[C@H]4CCCC[C@@H]4O)[C@@H]3OC)nn2)ccc1Cl` [US12291519, Example 184]: the results for the pIC50 against Galectin-1 and against Galectin-3 were 6.55 and 7.54, respectively.
For `O=C([C@@H]1O[C@H](CO)[C@H](O)C(n2cc(-c3cc(F)c(F)c(F)c3)nn2)[C@H]1OCCO)N(c1cc(Cl)cc(Cl)c1)[C@H]1CCCC[C@@H]1O` (stereo partly drawn) [US12291519, Example 196], in that order: 6.79 and 7.68.
For `CO[C@@H]1[C@@H](n2cc(-c3cc(F)cc(F)c3)nn2)[C@@H](O)[C@@H](CO)O[C@H]1C(=O)N(c1cc(Cl)cc(Cl)c1)[C@H]1CCCC[C@@H]1O` [US12291519, Example 78], the negative-log IC50 (pIC50) on Galectin-1 is 6.72; at Galectin-3 it was 7.59.
For `O=C([C@@H]1O[C@H](CO)[C@H](O)[C@H](n2cc(-c3cc(F)c(Cl)c(F)c3)nn2)[C@H]1O)N(Cc1ccccc1C(F)(F)F)[C@H]1CCCC[C@@H]1O` [US12291519, Example 67], the negative logarithm of the IC50 (pIC50) on Galectin-1 was 6.21; on Galectin-3 it was 7.38.
Take `Cn1ccc(CN(C(=O)[C@@H]2O[C@H](CO)[C@H](O)[C@H](n3cc(-c4cc(F)c(F)c(F)c4)nn3)[C@H]2O)[C@H]2CCCC[C@@H]2O)n1` [US12291519, Example 24]: the results for the pIC50 on Galectin-1 and against Galectin-3 were 4.59 and 6.53, respectively.
As for `COc1cc(C#N)cc(N(C(=O)[C@@H]2O[C@H](CO)[C@H](O)[C@H](n3cc(-c4ccc(Cl)c(Cl)c4)nn3)[C@H]2OC)[C@H]2CCCC[C@@H]2O)c1` [US12291519, Example 188], the pIC50 at Galectin-1 was 5.95; on Galectin-3, 7.36.
For `CO[C@@H]1[C@@H](n2cc(-c3cccc(F)c3)nn2)[C@@H](O)[C@@H](CO)O[C@H]1C(=O)N(c1cc(Cl)cc(Cl)c1)[C@H]1CCCC[C@@H]1O` [US12291519, Example 72], in that order: 7.24 and 7.51.
For `CO[C@@H]1[C@@H](n2cc(-c3cc(F)c(Cl)c(F)c3)nn2)[C@@H](O)[C@@H](CO)O[C@H]1C(=O)N(c1cc(Cl)cc(Cl)c1)[C@H]1CCCC[C@@H]1O` [US12291519, Example 156], in that order: 5.86 and 7.85.
